Assays:
[1] = test system: purified human monocytes; assay: F protein-mediated cytokine production by purified human monocytes; settings: for effect on F-induced IL-6 production: added to F-treated monocytes
Experimental: (§1) Human PBMC were isolated from leukopaks using Histopaque (Sigma, St. Louis, Mo.). Monocytes were isolated using the Monocyte Isolation Kit II (positive selection for CD3, CD7, CD16, CD19, CD56, CD123, and glycophorin A, MiltenyiBiotec) with Macs LS separation columns. Remaining cells were >90% monocytes by anti-CD14 staining and forward- and side-light scatter analysis using FACScan (Becton-Dickinson, Elmhust, Ill.).
(§2) Purified monocytes were stimulated with LPS (1 μg) or purified proteins F or Glycoprotein (3 μg; kindly provided by V. Randolph, Wyeth Lederle, N.Y.). All rRSV variants were grown in Hep-2 cells and Vero cells as described^29,30, and used at 10^5 pfu multiplicity of infection (MOI)=1] for stimulations. Lysate of Hep-2 cells and Vero cells were used as control stimuli. UV-inactivation was performed as described elsewhere19^5 and lack of virus replication confirmed in cell culture. […] An additional peptide encoding the conserved 13 amino acid region upstream of the GCRR (164-176)^3 was also used in add-back experiments. […] The GCRR and control peptides included biotin-SGSG at the amino termini. The anti-CX3CR1 antibody was kindly provided by P. Murphy, NIAID, NIH and used as described^18. For supplemental experiments, we used peptidoglycan (PGN; Fluka, Sigma) at 10 μg and CpGDNA (GTCGTT; HyCult Biotechnology) at 1 mM. Cytokines were measured in supernatant fluids 18 hours after stimulation by immunoassay following manufacturer's instructions (Biosource Europe S. A, Belgium).

[2] = test system: purified human monocytes; assay: Monocyte cytokine production upon exposure to RSV and recombinant RSV viruses
Experimental: as §1
(§3) Purified monocytes were stimulated with LPS (1 μg) or purified proteins F or Glycoprotein (3 μg; kindly provided by V. Randolph, Wyeth Lederle, N.Y.). All rRSV variants were grown in Hep-2 cells and Vero cells as described^29,30, and used at 10^5 pfu multiplicity of infection (MOI)=1] for stimulations. Lysate of Hep-2 cells and Vero cells were used as control stimuli. UV-inactivation was performed as described elsewhere19^5 and lack of virus replication confirmed in cell culture. […] An additional peptide encoding the conserved 13 amino acid region upstream of the GCRR (164-176)^3 was also used in add-back experiments. […] The GCRR and control peptides included biotin-SGSG at the amino termini. The anti-CX3CR1 antibody was kindly provided by P. Murphy, NIAID, NIH and used as described^18. […] Cytokines were measured in supernatant fluids 18 hours after stimulation by immunoassay following manufacturer's instructions (Biosource Europe S. A, Belgium).

[3] = test system: NF-κB; assay: NF-κB nuclear translocation immunoassay in human monocytes; assay type: cell-based; settings: 60 min; purified protein or live virus stimulation
Experimental: Human monocytes were stimulated with purified RSV F and/or Glycoprotein (1 μg each) or indicated viruses for 60 minutes. After stimulation nuclear extracts were obtained using a hypotonic lysis buffer (10 mM HEPES (pH 7.9), 1.5 mM MgCl2, 10 mM KCl, 0.5 mM DTT, 0.1% Triton X-100 and protease inhibitors) and an extraction buffer (20 mM HEPES (pH 7.9), 1.5 mM MgCl2, 0.42 M NaCl, 0.5 mM DTT, 0.2 mM EDTA, 1.0% Igepal CA-630, 25% (v/v) glycerol and protease inhibitors). NF-κB subunits p50 and p65 were detected by a modified immunoassay using a double stranded biotinylated oligonucleotide containing the consensus sequence for NF-κB binding (5′-GGGACTTTCC-3′) [SEQ ID NO:______] (Chemicon International, Germany).

[4] = test system: murine alveolar macrophages; assay: Cytokine production by murine alveolar macrophages incubated with purified proteins and recombinant viruses; assay type: cell-based; settings: macrophages from naive mice
Experimental: Alveolar macrophages were obtained by bronchoalveolar lavage (BAL) followed by magentic bead depletion (Militenyi Biotec, Germany). Macrophages were incubated with brefeldin A for six hours, fixed with commercially available fixation and permeabilization reagents, CYTOFIX/CYTOPERM (Becton Dickinson, Elmhust, Ill.), and stained using phycoerythrin (PE)-conjugated anti-IL-6 antibody (Becton Dickinson). Data was analyzed using side and forward scatter plots and FACScan (Becton Dickinson).

[5] = test system: RSV; settings: Glycoprotein added to F protein during immunization; cited from earlier work
[6] = test system: TLR2; assay: PGN-stimulated cytokine production by human monocytes; settings: co-incubation
Experimental: as §1, §3

[7] = test system: TLR9; assay: CpGDNA-stimulated cytokine production by human monocytes; settings: co-incubation
Experimental: as §1, §3

[8] = test system: TLR4; assay: Endotoxin (LPS)-mediated cytokine production by human monocytes; settings: for effect on LPS-induced cytokine production (IL-6, IL-1β): added to LPS-treated monocytes
Experimental: as §1, §2

## GlycoproteinA peptide (residues 273-288): control peptide within the Glycoprotein mucin-like domain [reference compound]
[1]
  effect on F-induced IL-6 production: inhibitory effect was not observed

## G^164-176: Glycoprotein peptide encompassing amino acids 164-176, conserved 13 amino acid segment upstream of the GCRR
[2]; peptide added with ΔG
  modulation of IL-6 production by ΔG: failed to modulate IL-6 production

## Glycoprotein: purified RSV attachment Glycoprotein from subgroup A (A2 strain)
[3]
  NF-κB nuclear translocation: decreased
[4]
  cytokine production in murine alveolar macrophages: modulating the innate responses elicited by both purified F and RSV
[5]
  decrease in production of interferon-γ upon RSV challenge vs immunization with F alone: up to 70 fold
[6]
  cytokine production elicited by TLR2 agonist PGN: inhibited
[2]; added to mG-infected monocytes
  IL-6 response of mG-infected cells after add-back to culture media: restored to levels similar to those elicited by RSV
[1]; F + Glycoprotein, P<0.01
  decrease in IL-6 production compared to monocytes incubated with F alone: approximately 1.5 log
[1]; not shown
  effect on F-induced IL-1β or IL-10 in supernatant fluids: inhibitory effect similar to that observed for Glycoprotein on F-induced IL-6 production
[1]; supernatant fluids, 18 hours, immunoassay
  IL-6 production by monocytes incubated with purified protein alone: low
[7]
  cytokine production elicited by TLR9 agonist CpGDNA: inhibited

## bovine serum albumin [reference compound]
[1]
  effect on F-induced IL-6 production: no effect

## YFARGPGIHIRKR [HIV V3 loop control peptide, reference compound]
[8]
  effect on LPS-induced cytokine production (IL-6, IL-1β): no effect
[1]
  effect on F-induced IL-6 production: inhibitory effect was not observed

## HFEVFNFVPCSICSNNPTCWAICKRI [GCRR peptide]
[8]
  effect on IL-10 production of monocytes incubated with LPS: affected production of IL-10
  effect on LPS-induced cytokine production (IL-6, IL-1β): dose-dependent inhibition of cytokine production
[1]
  effect on F-induced IL-6 production: dose-dependent inhibition

## HFEVFNFVPSSISSNNPTSWAISKRI [GSRR, reference compound]
[8]
  effect on LPS-induced cytokine production (IL-6, IL-1β): no effect
